# Test results published in patent publication EP0217372A2, “Polyoxygenated labdane derivatives, process for their preparation and their use as medicaments” (HOECHST AKTIENGESELLSCHAFT, priority 1985, dated 1987).
# Structures can show the parent of a compound that is named as a salt. Where two headings read alike, the source gives them in different places.
# Key:
# Meerschweinchen-Vorhof = test: Electrically stimulated left atrium, contractile force; conditions: contractile force of electrically stimulated left atrium, recorded 7 to 10 min
# From the text: 2. Elektrisch stimulierter linker Vorhof
# Es wird ein Meerschweinchen männlichen oder weiblichen Geschlechts mit einem Gewicht von 400 g getötet, das Herz entnommen und bei Zimmertemperatur in Ringerlösung eingebracht. Dann wird der linke Vorhof isoliert, an einem Organhalter befestigt und das Präparat in ein Organbad mit Ringerlösung von Zimmertemperatur gebracht. In das Organbad wird ein lebhafter Strom eines Gemisches von Kohlendioxid und Sauerstoff (95 % 02 und 5 % C02) geleitet. Dann wird der linke Vorhof elektrisch stimuliert. Anschließend wird aus einer der erfindungsgemäßen Verbindungen oder ih- rem Salz gegebenenfalls unter Verwendung von stöchiometrischer wäßriger 0,1 n HC1-Lösung eine wäßrige Lösung bekannter Konzentrationen hergestellt.
# Diese Lösung wird dem Bad zugesetzt und die Kontraktionskraft des Vorhofes 7 bis 10 Minuten lang auf einem 4-Kanal-Kohden-Rekorder registriert. Die Wirkung wird aus den ermittelten Daten als EC50 berechnet angegeben.
# Narkotisierter Hund = test: In vivo test in the anaesthetised dog (left ventricular dp/dt max); design: species or system Beagle-Hunde; conditions: injected into the femoral vein, pentobarbital anaesthesia; for ED50: Canis lupus familiaris, iv
# Experimental: 3. In vivo-Tests am narkotisierten Hund
# Beagle-Hunde beiderlei Geschlechts mit einem Gewicht zwischen 10 und 15 kg werden mit Na-Pentobarbitol (35 mg/kg, i.v.) narkotisiert. Nach Einführen eines Endotrachealtubus werden die Femoralarterie und -vene mit einer Kanüle zur Messung des Blutdrucks bzw. zur Verabreichung von Medikamenten versehen. Der Druck des linken Ventrikels wird mit Hilfe eines Millar-Katheters gemessen und dp/dt max wird berechnet mit einem Hugo-Sachs-Differentiometer. Die Herzfrequenz wird mit Hilfe eines Kardiotachometers aus ECG-Signalen bestimmt. Alle kontinuierlich gemessenen Parameter werden mit einem Hellige-Sechs-Kanal-Recorder aufgezeichnet.
# Die zu untersuchenden erfindungsgemäßen Verbindungen werden in destilliertem Wasser gelöst. In allen Experimenten werden 1%ige Lösungen verwendet. Die Lösungen werden in die Femoralvene injiziert und die Dosis-Wirkung-Relation berechnet.
# [1] = test system: Isoliertes Meerschweinchenherz; test: Isolated guinea pig heart (Langendorff method); design: species or system Meerschweinchen; conditions: Cavia porcellus; for activation at 0.01 mg: Dosis 10 µg injected into the aorta; for activation at 0.03 mg: Dosis 30 µg injected into the aorta
# From the text: 1. Isoliertes Meerschweinchenherz (Langendorff-Methode)
# Es wird ein Meerschweinchen männlichen oder weiblichen Geschlechts mit einem Gewicht zwischen 300 und 400 g getötet und das Herz mit einem kleinen Teil der Aorta entnommen. Das Herz wird umgehend in einen Perfusionsapparat gebracht, in dem die Aorta auf der Glaskanüle fixiert wird. Die aus oxygenierter Ringerlösung bestehende Perfusionslösung wird bei konstantem Druck aus dem Behälter zugeführt, der durch aus dem Thermostat zirkulierendes Wasser auf 37°C angewärmt wird. Die zu untersuchenden Verbindungen der Erfindung werden zur Herstellung einer Lösung mit bekannter Konzentration unter Verwendung stöchiometrischer 0,1 n HC1 bzw. deren Salze direkt in Wasser gelöst. Die erhaltene Lösung wird durch eine Polyäthylenkanüle direkt in die Aorta injiziert und die Wirkungen auf die Kontraktionskraft, Herzfrequenz und Koronardurchblutung auf einem 3-Kanal-Physioscribe-Rekorder aufgezeichnet. Die prozentuale Zu- oder Abnahme der inotropen Wirkung wird nach dem intialen Ausgangswert berechnet.
# Augeninnendruck (IOP) = test: Intraocular pressure in the conscious rabbit; type: in vivo, Kaninchen; conditions: for Senkung des IOP: percent decrease from baseline; for Dauer: duration of the IOP-lowering effect
# From the text: Messung des Augeninnendruckes am wachen Kaninchen
# Für die Untersuchung wird ein männliches oder weibliches Kaninchen mit einem Gewicht von 2 bis 3 k^g ausgewählt. Der Augeninnendruck (IOP) wird nach vorheriger Hornhautanästhesie mit 2 % Novocain-Lösung mit einem Schioetz-Tonometer gemessen. Zur Herstellung einer 2 %igen wäßrigen Lösung wird eine Verbindung der Formel I unter Verwendung von stöchiometrischer wäßriger 0,1 n HCI-Lösung oder ein Salz einer solchen Verbindung direkt in Wasser gelöst. […] Der IOP wird in Abständen von 0,5, 1, 2, 3, 4 und 5 Stunden gemessen. Die prozentuale Abnahme des IOP wird anhand des Ausgangswertes berechnet.
# [2] = read-out: % Zunahme der Chronotropen Wirkung
# [3] = read-out: % Zunahme der Koronardurchblutung
# [4] = relative to initial baseline, read-out: % Zunahme der Inotropen Wirkung
# [5] = Dosis 2 %, 100 µl instilled into one eye
smiles,measurement,setting,value
C=CC1(C)CC(=O)C2(O)C(C)(O1)C(OC(=O)CCCCN1CCCCC1)C(O)C1C(C)(C)CCC(O)C12C (centres unmarked),EC50,Meerschweinchen-Vorhof,30 µg/mL
C=C[C@@]1(C)CC(=O)[C@]2(O)[C@@]3(C)[C@@H](O)CCC(C)(C)[C@@H]3[C@H](O)[C@H](OC(=O)CN3CCCC(C)C3)[C@@]2(C)O1 (some centres unmarked),EC50,Meerschweinchen-Vorhof,30 µg/mL
"C=C[C@@]1(C)CC(=O)[C@]2(O)[C@@]3(C)[C@@H](O)CCC(C)(C)[C@@H]3[C@H](O)[C@H](OC(=O)C(C)N3CCOCC3)[C@@]2(C)O1 (some centres unmarked) [the 1st table, row 7]",Meerschweinchen-Vorhof EC50,Meerschweinchen-Vorhof,10 µg/mL
same,ED50,Narkotisierter Hund,0.04 mg/kg
same,activation at 0.01 mg,[1]; [2],20%
same,activation at 0.01 mg,[1]; [3],-5%
same,activation at 0.01 mg,[1]; [4],18%
C=CC1(C)CC(=O)C2(O)C(C)(O1)C(O)C(O)C1C(C)(C)CCC(OC(=O)CN3CCCCC3)C12C (centres unmarked),Senkung des IOP,Augeninnendruck (IOP); [5],18%
same,Dauer,Augeninnendruck (IOP); Dosis 2 %,2 Std.
C=C[C@@]1(C)CC(=O)[C@]2(O)[C@@]3(C)[C@@H](O)CCC(C)(C)[C@@H]3[C@H](OC(=O)CN3CCOCC3)[C@H](O)[C@@]2(C)O1,EC50,Meerschweinchen-Vorhof,0.5 µg/mL
same,ED50,Narkotisierter Hund,0.11 mg/kg
same,activation at 0.03 mg,[1]; [2],34%
same,activation at 0.03 mg,[1]; [3],35%
same,activation at 0.03 mg,[1]; [4],23%
C=CC1(C)CC(=O)C2(O)C(C)(O1)C(OC(=O)Cn1cnc3c1c(=O)n(C)c(=O)n3C)C(O)C1C(C)(C)CCC(O)C12C (centres unmarked),Senkung des IOP,Augeninnendruck (IOP); [5],21%
same,Dauer,Augeninnendruck (IOP); Dosis 2 %,> 6 Std.
"C=CC1(C)CC(=O)C2(O)C(C)(O1)C(OC(=O)C(C)N1CCSCC1)C(O)C1C(C)(C)CCC(OC(=O)C(C)N3CCSCC3)C12C (stereo not drawn) [6β-9α-Dihydroxy, 1α,7β-di(α'-thiomorpholinopropionyloxy)-8,13-epoxy-labd-14-en-one-dihydrochlorid-trihydrat]",Senkung des IOP,Augeninnendruck (IOP); Dosis 1 %,19%
same,Dauer,Augeninnendruck (IOP); Dosis 1 %,6 Std.
"C=CC1(C)CC(=O)C2(O)C(C)(O1)C(O)C(OC(=O)CCCCN1CCCCC1)C1C(C)(C)CCC(O)C12C (centres unmarked) [the 4th table, row 5]",EC50,Meerschweinchen-Vorhof,30 µg/mL
"C=C[C@@]1(C)CC(=O)[C@]2(O)[C@@]3(C)[C@@H](O)CCC(C)(C)[C@@H]3[C@H](O)[C@H](OC(=O)C(C)N3CCOCC3)[C@@]2(C)O1 (some centres unmarked) [the 2nd table, row 3]",Meerschweinchen-Vorhof EC50,Meerschweinchen-Vorhof,"0,266 µg/ml"
same,Narkotisierter Hund dp/dt max ED50,Narkotisierter Hund,"0,04 mg/kg"
same,activation at 0.03 mg,[1]; [2],32%
same,activation at 0.03 mg,[1]; [3],44%
same,activation at 0.03 mg,[1]; [4],20%
C=CC1(C)CC(=O)C2(O)C(C)(O1)C(OC(=O)C(C)n1cnc3c1c(=O)n(C)c(=O)n3C)C(O)C1C(C)(C)CCC(O)C12C (centres unmarked),EC50,Meerschweinchen-Vorhof,0.9 µg/mL
C=CC1(C)CC(=O)C2(O)C(C)(O1)C(OC(=O)Cn1nnc3ccccc31)C(O)C1C(C)(C)CCC(O)C12C (centres unmarked),EC50,Meerschweinchen-Vorhof,> 30 µg/mL
C=CC1(C)CC(=O)C2(O)C(C)(O1)C(O)C(OC(=O)CN1CCCC(C)C1)C1C(C)(C)CCC(O)C12C (centres unmarked),EC50,Meerschweinchen-Vorhof,30 µg/mL
C=C[C@@]1(C)CC(=O)[C@]2(O)[C@@]3(C)[C@@H](O)CCC(C)(C)[C@@H]3[C@H](OC(=O)CN3CCCCC3)[C@H](O)[C@@]2(C)O1,EC50,Meerschweinchen-Vorhof,2.3 µg/mL
same,activation at 0.01 mg,[1]; [2],27%
same,activation at 0.01 mg,[1]; [3],40%
same,activation at 0.01 mg,[1]; [4],32%
C=C[C@@]1(C)CC(=O)[C@]2(O)[C@@]3(C)[C@@H](O)CCC(C)(C)[C@@H]3[C@H](OC(=O)C(C)N3CCOCC3)[C@H](O)[C@@]2(C)O1 (some centres unmarked),EC50,Meerschweinchen-Vorhof,4.7 µg/mL
same,activation at 0.01 mg,[1]; [2],20%
same,activation at 0.01 mg,[1]; [3],11%
same,activation at 0.01 mg,[1]; [4],45%
C=C[C@@]1(C)CC(=O)[C@]2(O)[C@@]3(C)[C@@H](O)CCC(C)(C)[C@@H]3[C@H](O)[C@H](OC(=O)CN3CCSCC3)[C@@]2(C)O1,EC50,Meerschweinchen-Vorhof,30 µg/mL
C=C[C@@]1(C)CC(=O)[C@]2(O)[C@@]3(C)[C@@H](O)CCC(C)(C)[C@@H]3[C@H](O)[C@H](OC(=O)CCCN3CCOCC3)[C@@]2(C)O1,EC50,Meerschweinchen-Vorhof,3 µg/mL
C=C[C@@]1(C)CC(=O)[C@]2(O)[C@@]3(C)[C@@H](O)CCC(C)(C)[C@@H]3[C@H](OC(=O)CN3CCC(NC(=O)c4ccccc4)CC3)[C@H](O)[C@@]2(C)O1,EC50,Meerschweinchen-Vorhof,1.2 µg/mL
C=C[C@@]1(C)CC(=O)[C@]2(O)[C@@]3(C)[C@@H](O)CCC(C)(C)[C@@H]3[C@H](O)[C@H](OC(=O)CN3CCOCC3)[C@@]2(C)O1,EC50,Meerschweinchen-Vorhof,0.35 µg/mL
same,activation at 0.01 mg,[1]; [2],35%
same,activation at 0.01 mg,[1]; [3],100%
same,activation at 0.01 mg,[1]; [4],37%
C=CC1(C)CC(=O)C2(O)C(C)(O1)C(O)C(OC(=O)CN(C)C1CCCCC1)C1C(C)(C)CCC(O)C12C (centres unmarked),Senkung des IOP,Augeninnendruck (IOP); [5],27.5%
same,Dauer,Augeninnendruck (IOP); Dosis 2 %,6 Std.
"C=CC1(C)CC(=O)C2(O)C(C)(O1)C(O)C(OC(=O)CCCCN1CCCCC1)C1C(C)(C)CCC(O)C12C (centres unmarked) [the 5th table, row 7]",Senkung des IOP,Augeninnendruck (IOP); Dosis 1 %,23%
same,Dauer,Augeninnendruck (IOP); Dosis 1 %,6 Std.
C=C[C@@]1(C)CC(=O)[C@]2(O)[C@@]3(C)[C@@H](O)CCC(C)(C)[C@@H]3[C@H](OC(=O)CN3CCCC3)[C@H](O)[C@@]2(C)O1,EC50,Meerschweinchen-Vorhof,3 µg/mL
C=C[C@@]1(C)CC(=O)[C@]2(O)[C@@]3(C)[C@@H](O)CCC(C)(C)[C@@H]3[C@H](O)[C@H](OC(=O)CN3CCCC3)[C@@]2(C)O1,EC50,Meerschweinchen-Vorhof,1.8 µg/mL
same,ED50,Narkotisierter Hund,0.5 mg/kg
same,activation at 0.01 mg,[1]; [2],24%
same,activation at 0.01 mg,[1]; [3],57%
same,activation at 0.01 mg,[1]; [4],38%
C=CC1(C)CC(=O)C2(O)C(C)(O1)C(O)C(OC(=O)CN1CCCCCC1)C1C(C)(C)CCC(O)C12C (centres unmarked),EC50,Meerschweinchen-Vorhof,1.9 µg/mL
C=C[C@@]1(C)CC(=O)[C@]2(O)[C@@]3(C)[C@@H](O)CCC(C)(C)[C@@H]3[C@H](OC(=O)CN3CCSCC3)[C@H](O)[C@@]2(C)O1,EC50,Meerschweinchen-Vorhof,1.5 µg/mL
same,ED50,Narkotisierter Hund,> 3 mg/kg
C=C[C@@]1(C)CC(=O)[C@]2(O)[C@@]3(C)[C@@H](O)CCC(C)(C)[C@@H]3[C@H](O)[C@H](OC(=O)CCN3C(=O)c4ccccc4C3=O)[C@@]2(C)O1,EC50,Meerschweinchen-Vorhof,> 3 µg/mL
C=C[C@@]1(C)CC(=O)[C@]2(O)[C@@]3(C)[C@@H](O)CCC(C)(C)[C@@H]3[C@H](OC(=O)CN3CCC(C)CC3)[C@H](O)[C@@]2(C)O1,EC50,Meerschweinchen-Vorhof,2.6 µg/mL
same,ED50,Narkotisierter Hund,0.39 mg/kg
C=C[C@@]1(C)CC(=O)[C@]2(O)[C@@]3(C)[C@@H](O)CCC(C)(C)[C@@H]3[C@H](O)[C@H](OC(=O)CN3CCCCC3)[C@@]2(C)O1,EC50,Meerschweinchen-Vorhof,22 µg/mL
same,activation at 0.01 mg,[1]; [2],1%
same,activation at 0.01 mg,[1]; [3],31%
same,activation at 0.01 mg,[1]; [4],18%
